Measurements taken from patent US20080114066A1, “Synergistic Effects Of Docosahexaenoic Acid (DHA) And Carotenoid Absorption Of Cognitive Function” (Trustees of Tufts College, priority 2005, published 2008).

Legend:
Type in all cases: in vivo, human
[1] = test system: non-smoking women (60-80 years); assay: Digit Span Forward and Backward; details: group mean
Description: (§1) Subjects: Fifty non-smoking women (60-80 years) were recruited from the general population for a 4 month supplementation study. All subjects underwent a screening examination that includes a medical history, a physical examination, and a routine blood clinical chemistry profile. Volunteers with any history or biochemical evidence of lactose intolerance, liver, kidney, or pancreatic disease, anemia, active bowel disease or resection, insulin-dependent diabetes, easy bruising or bleeding, bleeding disorders, hyperglyceridemia, hyperlipidproteinemia, or alcoholism were excluded from the study. Moreover, individuals taking mineral oil or medications suspected of interfering with fat-soluble vitamin absorption were excluded. Subjects using steroids or non-steroid anti-inflammatory drugs, or antihistamine drugs were excluded. […] Subjects were excluded if they have taken any nutrient supplement for 2 months or more before admission into the study or carotene supplements 6 months or more before the study. Smoking was not permitted during the course of the study.
(§2) Women were randomly assigned to one of four groups: Control (n=10), DHA (n=14, DHA 800 mg/d), lutein (n=12, lutein 12 mg/d), and lutein+DHA (n=14, lutein 12 mg/d; DHA 800 mg/d) (C, D, L, and LD, respectively). The supplement type was randomized. Subjects visited the Jean Mayer USDA Human Nutrition Research Center on Aging at Tufts University on days that supplements were distributed and blood obtained (0 mo-baseline, 2 mo, and 4 mo). Subjects were instructed to take the supplement with a nutritional energy drink (8 oz., Boost®, Mead Johnson Nutritionals) but were otherwise asked to not alter their diets. The diet of each subject was monitored with food frequency questionnaires (Block G, et al., A data-based approach to diet questionnaire design and testing. Am J Epidemiol, 1986. 24: p. 453-469) completed at baseline, 2 months and 4 months to be sure that there were no confounding changes in dietary intake. All subjects completed at least two sets of cognitive and mood self-report tests, at the beginning of the study, then at the end of the study, after four months of supplementation, at the Schepens Eye Research Institute. Compliance was by monitored by interview, compliance calendars and capsule count. Both the subjects and the experimenter were masked to the experimental groups. Blood samples were collected at baseline, 2 months and 4 months, and serum was separated from red blood cells (800×g, 10 minutes). Aliquots of serum are stored at −70° C. until analyzed. At baseline and 2 months, a two month supply of placebo supplements, DHA (800 mg/d, DHASCO, Martek Biological Sciences), lutein (12 mg/d plus 0.5 mg zeaxanthin, Kemin Foods), or lutein+DHA (12 mg/d and 800 mg/d, respectively and nutritional energy drink was provided. At baseline and 4 months, subjects visited the Schepens Eye Research Institute (Boston, Mass.) for testing of MP optical density (MPOD) and an ophthalmic exam. There were two visits at each time point.
(§3) Supplementation Protocol. Dietary supplements in capsule form were Lutein (12 mg/day) (Kemin Foods) and Docosahexaenoic Acid (DHASCO) (800 mg/day) (Martek Biological Sciences). Participants in each of the four supplementation groups were instructed to drink one can of a nutritional supplement daily (Boost Plus) (Mead Johnson) when taking their capsules. Subjects ingested their dietary supplements daily for a period of 4 months. Both the subjects and the experimenter were masked to the experimental groups.
(§4) Tests and Measurements. The battery of cognitive tests included tests of memory and processing speed or attention and a measure of self-reported mood. […] Early cognitive markers of the incidence of dementia and mortality: A longitudinal population-based study of the oldest old. International Journal of Geriatric Psychiatry, 12, 53-59; Payton, M., Riggs, K. M., Spiro III, A., Weiss, S. T. & Hu, H. (1998). […]

[2] = test system: non-smoking women (60-80 years); assay: MIR (Memory in Reality) apartment test; details: group mean
Description: as §1, §2, §3, §4

[3] = test system: non-smoking women (60-80 years); assay: Stroop Test (computerized); details: group mean; for Stroop Test Total RT, Interference (NC-C): subtask 4 minus subtask 3
Description: as §1, §2, §3, §4

[4] = test system: non-smoking women (60-80 years); assay: NES2 Mood Scales (self-reported mood); design: scale not given here; details: group mean
Description: as §1, §2, §3, §4

macular pigment = assay: Macular pigment optical density (MPOD), psychophysical method; details: for Mean increase in total MPOD (change from baseline): 4 months of supplementation, area under the curve of 5 loci, mean ± se
Description: as §2
The method of assessing MPOD involves a three-channel Maxwellian view optical system and used a psycho physical method described by Hammond et al. (Hammond B. R., et al., Vision Res, 1996. 36: p. 2001-2012). […] MPOD was measured in two baseline sessions on separate days and in two sessions on separate days at the end of 4 months of supplementation.
Differences between cognitive and mood scores at baseline and after supplementation were tested by Student's t test for each treatment group. In the case of those variables where a significant change was found from baseline to end of study, correlations were calculated between age, education, serum levels of DHA and lutein, and test scores, for those test scores where the distribution was normal or near-normal. […]

[5] = Baseline, before supplementation
[6] = Final, after 4 months of supplementation

Row | SMILES | Backward Digit Span Length [1, 5] | Backward Digit Span Total [1, 5] | Forward Digit Span Length [1, 5] | Forward Digit Span Total [1, 5] | Backward Digit Span Length [1, 6] | Backward Digit Span Total [1, 6] | Forward Digit Span Length [1, 6] | Forward Digit Span Total [1, 6] | MIR Apartment Test Delayed Recall (max. 10) [2, 5] | MIR Apartment Test Location Recall (max. 10) [2, 5] | MIR Apartment Test Delayed Recall (max. 10) [2, 6] | MIR Apartment Test Location Recall (max. 10) [2, 6] | Stroop Test Mean RT, Name Colors [3, 5] | Stroop Test Mean RT, Name Colors-Words [3, 5] | Stroop Test Mean RT, Read Words-Black [3, 5] | Stroop Test Mean RT, Read Words-Color [3, 5] | Stroop Test Total RT, Interference (NC-C) [3, 5] | Stroop Test Mean RT, Name Colors [3, 6] | Stroop Test Mean RT, Name Colors-Words [3, 6] | Stroop Test Mean RT, Read Words-Black [3, 6] | also measured
1 | CC1=C[C@H](O)CC(C)(C)[C@H]1/C=C/C(C)=C/C=C/C(C)=C/C=C/C=C(C)/C=C/C=C(C)/C=C/C1=C(C)C[C@@H](O)CC1(C)C [Lutein, lutein] | 5.1 | 7.5 | 6.6 | 8.1 | 4.7 | 6.9 | 7.0 | 8.7 | 8.3 | 9.5 | 8.6 | 9.5 | 1008 ms | 1492 ms | 844 ms | 753 ms | 24.2 s | 1014 ms | 1462 ms | 945 ms | Stroop Test Mean RT, Read Words-Color [3, 6]: 883 ms; Stroop Test Total RT, Interference (NC-C) [3, 6]: 22.4 s; Mood Scales Anger [4, 5]: 1.4; Mood Scales Confusion [4, 5]: 1.9; Mood Scales Depression [4, 5]: 1.5; Mood Scales Fatigue [4, 5]: 2.4; Mood Scales Tension [4, 5]: 2.1; Mood Scales Anger [4, 6]: 1.5; Mood Scales Confusion [4, 6]: 2.4; Mood Scales Depression [4, 6]: 1.8; Mood Scales Fatigue [4, 6]: 2.9; Mood Scales Tension [4, 6]: 2.4; Subjects without increase in MPOD (non responders) (macular pigment; 4 months of lutein supplementation): Two of 14; Mean increase in total MPOD (change from baseline) (macular pigment): 0.370±0.140 OD
2 | CC/C=C\C/C=C\C/C=C\C/C=C\C/C=C\C/C=C\CCC(=O)O [DHA, cis-4,7,10,13,16,19-docosahexaenoic acid] | 5.4 | 7.9 | 6.6 | 8.4 | 5.8 | 8.4 | 6.7 | 8.5 | 9.4 | 9.9 | 9.4 | 10.0 | 838 ms | 1269 ms | 879 ms | 715 ms | 21.5 s | 884 ms | 1277 ms | 748 ms | Stroop Test Mean RT, Read Words-Color [3, 6]: 727 ms; Stroop Test Total RT, Interference (NC-C) [3, 6]: 19.7 s; Mood Scales Anger [4, 5]: 1.6; Mood Scales Confusion [4, 5]: 1.7; Mood Scales Depression [4, 5]: 1.7; Mood Scales Fatigue [4, 5]: 2.1; Mood Scales Tension [4, 5]: 2.0; Mood Scales Anger [4, 6]: 1.6; Mood Scales Confusion [4, 6]: 1.8; Mood Scales Depression [4, 6]: 1.7; Mood Scales Fatigue [4, 6]: 2.1; Mood Scales Tension [4, 6]: 2.1; Retinal loci with significant increase in MPOD (macular pigment; 4 month change from baseline, loci 0.4°, 1.5°, 3°, 5°): 0.4°; Mean increase in total MPOD (change from baseline) (macular pigment): 0.037±0.068 OD
